What all share (type): cell-based
In test [1] the target is T1, IR (NIH-3T3 cells over expressing human IGF-1R or IR) (Homo sapiens, UniProt P06213).
T1 construct: expressed in transfected cells; host or cells: NIH-3T3 (mouse fibroblasts)
In words: IR cellular autophosphorylation (DELFIA). Particulars: NIH-3T3 cells over expressing IR, insulin stimulated. As to the method: (§1) D. IGF-1R and IR Cellular Autophosphorylation (DELFIA)
(§2) NIH-3T3 cells over expressing human IGF-1R or IR were plated in 96-well plates (10,000 cells/well) in culture media containing 10% fetal bovine serum and incubated at 37° C. in a 5% CO2 incubator. Twenty four hours post-plating, cells were treated with different concentrations of test compounds ranging from 30 uM to 1.5 nM. Two hours after compound addition, cells were stimulated with either human IGF-1 (30 ng/mL) or insulin (3 ug/mL) for 15 minutes. Cell lysates are analyzed for phosphorylated receptors using dissociation enhanced lanthanide fluor-immuno assay (DELFIA) with anti-IGF-1R (MAB391, R&D Systems, Minneapolis, Minn.) or anti-IR[…](sc-711, Santa Cruz Biotechnology, Santa Cruz, Calif.) capture antibody and europium-labeled anti-pTyr antibody (Eu-N1 PT66, Perkin Elmer, Waltham, Mass.) for detection. The fluorescence signal for cells treated with compounds was expressed as percent relative to 100% stimulation (IGF-1 or insulin stimulated signal). […]

Test [2] has as its target T2, human IGF-1R (NIH-3T3 cells over expressing human IGF-1R) (Homo sapiens, UniProt P08069).
T2 construct: expressed in transfected cells; host or cells: NIH-3T3 (mouse fibroblasts)
In words: IGF-1R cellular autophosphorylation (DELFIA). The conditions noted are these: IGF-1 stimulated. As to the method:
as §1, §2

A further test deals with COLO205 (colon). Description: Inhibition of cell proliferation, CellTiter-Glo, COLO205. The conditions noted are these: Homo sapiens, COLO 205, 72 h. The method, then:
C. Inhibition of Cell Proliferation
Cell proliferation was measured by either CellTiter-Glo (measures cellular ATP level as a surrogate for total cell number) or by InCell analyzer (counts number of nuclei as a measure of cell number). For CellTiter-Glo assay, exponentially growing cell lines of different tumor origins, cultured in appropriate media containing 10% fetal bovine serum at 37° C. in a 5% CO2 incubator, were plated at low density (less than 2000 cells/well) in 96-well plates. […] Several wells were left untreated as a control. Seventy two hours post-treatment, cell numbers were determined using 50-100 ul per well of CellTiter-Glo (Promega #G7573). Plates were incubated at 37° C. for 30 minutes and the chemiluminescent signal was read on the Victor V or Envison 2100 reader. […]
A general note: In ATP-based viability assays light output follows the ATP content of the culture.

For 17 compounds, IC50 results are on record in US20100216779A1 (GLAXOSMITHKLINE LLC, priority 2007, published 2010).

T1 sequence (P06213 28-1382): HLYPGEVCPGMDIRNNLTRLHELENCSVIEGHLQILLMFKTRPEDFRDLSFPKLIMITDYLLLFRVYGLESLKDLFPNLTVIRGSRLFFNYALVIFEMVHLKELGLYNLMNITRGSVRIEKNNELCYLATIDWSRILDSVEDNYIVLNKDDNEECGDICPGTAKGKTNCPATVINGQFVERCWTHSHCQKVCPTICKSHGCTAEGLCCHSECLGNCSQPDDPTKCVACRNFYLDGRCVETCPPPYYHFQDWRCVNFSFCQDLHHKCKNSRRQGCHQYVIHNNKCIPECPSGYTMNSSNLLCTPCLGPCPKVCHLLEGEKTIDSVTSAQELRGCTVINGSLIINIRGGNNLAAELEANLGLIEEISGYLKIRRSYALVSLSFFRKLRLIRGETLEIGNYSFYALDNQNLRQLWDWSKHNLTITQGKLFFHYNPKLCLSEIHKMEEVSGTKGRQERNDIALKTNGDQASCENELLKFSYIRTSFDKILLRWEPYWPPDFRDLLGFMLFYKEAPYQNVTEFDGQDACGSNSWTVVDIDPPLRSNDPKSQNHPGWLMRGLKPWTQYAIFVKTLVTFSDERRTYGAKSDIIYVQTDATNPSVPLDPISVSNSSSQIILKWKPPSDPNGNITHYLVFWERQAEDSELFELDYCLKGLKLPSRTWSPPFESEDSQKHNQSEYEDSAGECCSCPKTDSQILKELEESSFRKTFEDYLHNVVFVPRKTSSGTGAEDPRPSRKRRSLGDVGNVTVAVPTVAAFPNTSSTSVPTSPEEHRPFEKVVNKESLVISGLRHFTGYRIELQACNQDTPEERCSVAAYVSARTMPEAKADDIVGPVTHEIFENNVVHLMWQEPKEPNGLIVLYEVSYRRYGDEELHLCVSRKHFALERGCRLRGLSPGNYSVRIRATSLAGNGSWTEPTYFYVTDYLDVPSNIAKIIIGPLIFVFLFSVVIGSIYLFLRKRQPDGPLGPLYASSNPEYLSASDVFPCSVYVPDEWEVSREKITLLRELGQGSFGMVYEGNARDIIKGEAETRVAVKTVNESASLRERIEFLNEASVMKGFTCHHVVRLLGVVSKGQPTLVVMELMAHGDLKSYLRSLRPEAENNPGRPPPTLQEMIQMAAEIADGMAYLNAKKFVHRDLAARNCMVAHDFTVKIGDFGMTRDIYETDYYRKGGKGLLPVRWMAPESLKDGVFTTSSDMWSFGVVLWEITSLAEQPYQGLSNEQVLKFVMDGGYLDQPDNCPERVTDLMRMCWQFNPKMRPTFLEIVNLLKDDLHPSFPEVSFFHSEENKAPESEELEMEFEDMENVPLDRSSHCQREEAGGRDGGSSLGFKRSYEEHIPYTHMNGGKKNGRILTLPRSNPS
T2 sequence (P08069 31-1367): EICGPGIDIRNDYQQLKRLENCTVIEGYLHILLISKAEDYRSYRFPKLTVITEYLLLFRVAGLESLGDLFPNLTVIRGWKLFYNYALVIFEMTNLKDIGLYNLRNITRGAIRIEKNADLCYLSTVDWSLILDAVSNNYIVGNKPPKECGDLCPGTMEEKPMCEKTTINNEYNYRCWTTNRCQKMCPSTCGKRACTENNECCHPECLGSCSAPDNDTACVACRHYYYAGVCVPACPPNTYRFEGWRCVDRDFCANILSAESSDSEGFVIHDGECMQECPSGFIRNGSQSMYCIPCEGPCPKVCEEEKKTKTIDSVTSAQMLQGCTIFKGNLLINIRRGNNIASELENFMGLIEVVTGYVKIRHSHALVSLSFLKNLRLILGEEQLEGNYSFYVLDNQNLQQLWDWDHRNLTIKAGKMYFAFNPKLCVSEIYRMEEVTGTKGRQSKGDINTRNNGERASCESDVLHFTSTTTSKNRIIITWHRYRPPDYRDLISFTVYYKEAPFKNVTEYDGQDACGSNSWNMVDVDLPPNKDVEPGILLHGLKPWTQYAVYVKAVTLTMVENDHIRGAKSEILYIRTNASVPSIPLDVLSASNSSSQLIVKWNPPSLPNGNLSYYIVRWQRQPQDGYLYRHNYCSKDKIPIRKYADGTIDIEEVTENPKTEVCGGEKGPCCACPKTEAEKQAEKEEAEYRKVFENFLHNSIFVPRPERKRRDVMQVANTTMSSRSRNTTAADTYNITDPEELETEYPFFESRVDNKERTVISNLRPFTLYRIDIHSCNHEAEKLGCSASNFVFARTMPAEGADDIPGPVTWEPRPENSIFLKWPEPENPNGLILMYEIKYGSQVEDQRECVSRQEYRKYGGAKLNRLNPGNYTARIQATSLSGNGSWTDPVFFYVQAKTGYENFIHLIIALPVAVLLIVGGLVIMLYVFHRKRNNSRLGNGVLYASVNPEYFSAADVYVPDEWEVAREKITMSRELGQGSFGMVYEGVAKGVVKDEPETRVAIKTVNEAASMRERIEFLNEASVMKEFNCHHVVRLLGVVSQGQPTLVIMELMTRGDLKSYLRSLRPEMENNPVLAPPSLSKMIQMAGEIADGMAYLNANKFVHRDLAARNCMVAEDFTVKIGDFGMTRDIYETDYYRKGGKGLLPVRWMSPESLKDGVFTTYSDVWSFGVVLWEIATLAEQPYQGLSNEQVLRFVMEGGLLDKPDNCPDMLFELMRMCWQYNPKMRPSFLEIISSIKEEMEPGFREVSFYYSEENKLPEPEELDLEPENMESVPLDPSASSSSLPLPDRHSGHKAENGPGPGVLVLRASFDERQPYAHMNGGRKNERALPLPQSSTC

For `COc1cc(N2CCC(N3CCCCC3)CC2)ccc1Nc1nccc(-c2c(-c3ccc(OC)c(C(=O)Nc4c(F)cccc4F)c3)nc3cc(C)ccn23)n1` [Example 4, 5-[3-(2-{[4-(1,4′-bipiperidin-1′-yl)-2-(methyloxy)phenyl]amino}-4-pyrimidinyl)-7-methylimidazo[1,2-a]pyridin-2-yl]-N-(2,6-difluorophenyl)-2-(methyloxy)benzamide], the IC50 was less than 100 nM in test [1], less than 100 nM in test [2] and 250 to 1000 nM with COLO205 (colon).
Consider `COc1cc(N2CCN(C3CCN(CCS(C)(=O)=O)CC3)CC2)ccc1Nc1nccc(-c2c(-c3cccc(C(=O)Nc4c(F)cccc4F)c3)nc3ccccn23)n1` [Example 89, N-(2,6-difluorophenyl)-3-[3-(2-{[2-(methyloxy)-4-(4-{1-[2-(methylsulfonyl)ethyl]-4-piperidinyl}-1-piperazinyl)phenyl]amino}-4-pyrimidinyl)imidazo[1,2-a]pyridin-2-yl]benzamide], for which the IC50 in test [1] is less than 100 nM; in test [2], less than 100 nM; in the test on COLO205 (colon) it was less than 250 nM.
As for `COc1cc(N2CCC(N3CCCCC3)CC2)ccc1Nc1nccc(-c2c(-c3cccc(C(=O)Nc4ccc(F)cc4F)c3)nc3ccccn23)n1` [Example 72, 3-[3-(2-{[4-(1,4′-bipiperidin-1′-yl)-2-(methyloxy)phenyl]amino}-4-pyrimidinyl)imidazo[1,2-a]pyridin-2-yl]-N-(2,4-difluorophenyl)benzamide], the IC50 in test [1] was less than 100 nM; in test [2], less than 100 nM; in the test with COLO205 (colon), 250 to 1000 nM.
As for `COc1cc(N2CCC(N3CCC[C@H](O)C3)CC2)ccc1Nc1nccc(-c2c(-c3cccc(C(=O)Nc4c(F)cccc4F)c3)nc3ccccn23)n1` [Example 83, N-(2,6-difluorophenyl)-3-[3-(2-{[4-[(3S)-3-hydroxy-1,4′-bipiperidin-1′-yl]-2-(methyloxy)phenyl]amino}-4-pyrimidinyl)imidazo[1,2-a]pyridin-2-yl]benzamide], the IC50 in test [1] was 100 to 500 nM; in test [2], less than 100 nM; with COLO205 (colon) it was 250 to 1000 nM.
For `COc1cc(N2CCC(N3CCCCC3)CC2)c(C)cc1Nc1nccc(-c2c(-c3ccc(OC)c(C(=O)Nc4c(F)cccc4F)c3)nc3ccccn23)n1` [Example 109, 5-[3-(2-{[4-(1,4′-bipiperidin-1′-yl)-5-methyl-2-(methyloxy)phenyl]amino]-4-pyrimidinyl)imidazo[1,2-a]pyridin-2-yl]-N-(2,6-difluorophenyl)-2-(methyloxy)benzamide] the same measures were less than 100 nM, less than 100 nM and less than 250 nM.
On to `COc1cc(N2CCC(CN3CCCCC3)CC2)ccc1Nc1nccc(-c2c(-c3cccc(C(=O)Nc4c(F)cccc4F)c3)nc3ccccn23)n1` [Example 36, N-(2,6-difluorophenyl)-3-{3-[2-({2-(methyloxy)-4-[4-(1-piperidinylmethyl)-1-piperidinyl]phenyl}amino)-4-pyrimidinyl]imidazo[1,2-a]pyridin-2-yl}benzamide], for which the IC50 was less than 100 nM in test [1], less than 100 nM in test [2] and 250 to 1000 nM with COLO205 (colon).
Regarding `COc1cc(N2CCC(N3CCC(C)CC3)CC2)ccc1Nc1nccc(-c2c(-c3cccc(C(=O)Nc4c(F)cccc4F)c3)nc3ccccn23)n1` [Example 46, N-(2,6-difluorophenyl)-3-[3-(2-{[4-(4-methyl-1,4′-bipiperidin-1′-yl)-2-(methyloxy)phenyl]amino}-4-pyrimidinyl)imidazo[1,2-a]pyridin-2-yl]benzamide], the IC50 in test [1] was 100 to 500 nM; in test [2] it was 100 to 500 nM; in the test on COLO205 (colon), more than 1000 nM.
With `COc1cc(C2CCN(CCF)CC2)ccc1Nc1nccc(-c2c(-c3ccc(OC)c(C(=O)Nc4c(F)cccc4F)c3)nc3ccccn23)n1` [Example 179, N-(2,6-difluorophenyl)-5-[3-(2-{[4-[1-(2-fluoroethyl)-4-piperidinyl}-2-(methyloxy)phenyl]-amino}-4-pyrimidinyl)imidazo[1,2-a]pyridin-2-yl]-2-(methyloxy)benzamide], the IC50 in test [1] is less than 100 nM; in test [2], less than 100 nM; in the test with COLO205 (colon), 250 to 1000 nM.
On to `COc1cc(N2CCC(N3CCCCC3)CC2)c(Cl)cc1Nc1nccc(-c2c(-c3ccc(OC)c(C(=O)Nc4c(F)cccc4F)c3)nc3ccccn23)n1` [Example 105, 5-[3-(2-{[4-(1,4′-bipiperidin-1′-yl)-5-chloro-2-(methyloxy)phenyl]amino]-4-pyrimidinyl)imidazo[1,2-a]pyridin-2-yl]-N-(2,6-difluorophenyl)-2-(methyloxy)benzamide], for which the IC50 in test [1] is less than 100 nM; in test [2], less than 100 nM; with COLO205 (colon) it was less than 250 nM.
In the case of `COc1ccn2c(-c3ccnc(Nc4ccc(N5CCC(N6CCCCC6)CC5)cc4OC)n3)c(-c3ccc(OC)c(C(=O)Nc4c(F)cccc4F)c3)nc2c1` [Example 5, 5-[3-(2-{[4-(1,4′-bipiperidin-1′-yl)-2-(methyloxy)phenyl]amino}-4-pyrimidinyl)-7-(methyloxy)imidazo[1,2-a]pyridin-2-yl]-N-(2,6-difluorophenyl)-2-(methyloxy)benzamide], the IC50 in test [1] is less than 100 nM; in test [2], less than 100 nM; in the test on COLO205 (colon), more than 1000 nM.
Regarding `Cn1cc(-c2cccc(Nc3nccc(-c4c(-c5cccc(C(=O)Nc6c(F)cccc6F)c5)nc5ccccn45)n3)c2)cn1` [Example 11, N-(2,6-difluorophenyl)-3-[3-(2-{[3-(1-methyl-1H-pyrazol-4-yl)phenyl]amino}-4-pyrimidinyl)imidazo[1,2-a]pyridin-2-yl]benzamide], the IC50 in test [1] lay within 100 to 500 nM; in test [2], 100 to 500 nM; with COLO205 (colon) it was 250 to 1000 nM.
As for `CCOc1cc(N2CCN(C3CCN(CCS(C)(=O)=O)CC3)CC2)ccc1Nc1nccc(-c2c(-c3cccc(C(=O)Nc4c(F)cccc4F)c3)nc3ccccn23)n1` [Example 92, N-(2,6-difluorophenyl)-3-[3-(2-{[2-(ethyloxy)-4-(4-{1-[2-(methylsulfonyl)ethyl]-4-piperidinyl}-1-piperazinyl)phenyl]amino]-4-pyrimidinyl)imidazo[1,2-a]pyridin-2-yl]benzamide], the concentration for half-maximal inhibition (IC50) in test [1] was less than 100 nM; in test [2], less than 100 nM; in the test on COLO205 (colon), less than 250 nM.
For the compound `COc1ccn2c(-c3ccnc(Nc4cccc(OCCN(C)C)c4)n3)c(-c3cccc(C(=O)Nc4ccc(F)cc4F)c3)nc2c1` [Example 16, N-(2,4-difluorophenyl)-3-[3-{2-[(3-{[2-(dimethylamino)ethyl]oxy}phenyl)amino]-4-pyrimidinyl}-7-(methyloxy)imidazo[1,2-a]pyridin-2-yl]benzamide], the IC50 was less than 100 nM in test [1], less than 100 nM in test [2] and 250 to 1000 nM with COLO205 (colon).
Regarding `COc1cc(CCCN2CCN(C)CC2)ccc1Nc1nccc(-c2c(-c3cccc(C(=O)Nc4c(F)cccc4F)c3)nc3ccccn23)n1` [Example 141, N-(2,6-difluorophenyl)-3-{3-[2-({2-(methyloxy)-4-[3-(4-methyl-1-piperazinyl)propyl]phenyl}amino)-4-pyrimidinyl]imidazo[1,2-a]pyridin-2-yl}benzamide], the IC50 in test [1] lay within 100 to 500 nM; in test [2], 100 to 500 nM; with COLO205 (colon), 250 to 1000 nM.
With `COc1cc(N2CCC(N3CCCCC3)CC2)c(F)cc1Nc1nccc(-c2c(-c3cccc(C(=O)Nc4c(F)cccc4F)c3)nc3ccccn23)n1` [Example 106, 3-[3-(2-{[4-(1,4′-bipiperidin-1′-yl)-5-fluoro-2-(methyloxy)phenyl]amino}-4-pyrimidinyl)imidazo[1,2-a]pyridin-2-yl]-N-(2,6-difluorophenyl)benzamide], the IC50 in test [1] was less than 100 nM; in test [2], less than 100 nM; with COLO205 (colon) it was 250 to 1000 nM.
Regarding `Cc1cc(N2CCC(N3CCCCC3)CC2)ccc1Nc1nccc(-c2c(-c3cccc(C(=O)Nc4c(F)cccc4F)c3)nc3ccccn23)n1` [Example 53, 3-[3-(2-{[4-(1,4′-bipiperidin-1′-yl)-2-methylphenyl]amino}-4-pyrimidinyl)imidazo[1,2-a]pyridin-2-yl]-N-(2,6-difluorophenyl)benzamide], the half-inhibitory concentration (IC50) in test [1] is 100 to 500 nM; in test [2] it was less than 100 nM; in the test with COLO205 (colon) it was 250 to 1000 nM.
Take `COc1cc(N2CCC(N3C[C@@H](C)O[C@@H](C)C3)CC2)ccc1Nc1nccc(-c2c(-c3cccc(C(=O)Nc4c(F)cccc4F)c3)nc3ccccn23)n1` [Example 47, N-(2,6-difluorophenyl)-3-[3-(2-{[4-{4-[(2R,6S)-2,6-dimethyl-4-monpholinyl]-1-piperidinyl}-2-(methyloxy)phenyl]amino}-4-pyrimidinyl)imidazo[1,2-a]pyridin-2-yl]benzamide]: the values for the 50% inhibitory concentration (IC50) (in test [1]; in test [2]; in the test on COLO205 (colon)) were 100 to 500 nM, less than 100 nM and 250 to 1000 nM, respectively.

One may read the IC50 as the concentration needed to halve the response being measured. Read a low IC50 as greater potency in that assay.
